{"source": "patent US20100203650A1", "about": "“BIOMOLECULE BINDING LIGANDS” (CAMBRIDGE ENTERPRISE LIMITED, priority 2007, published 2010)", "biological_target": "T1, Factor VIII (Homo sapiens, UniProt P00451)", "T1 construct": "large-scale purification of a full-length recombinant Factor VIII", "T1 sequence (P00451 20-2351)": "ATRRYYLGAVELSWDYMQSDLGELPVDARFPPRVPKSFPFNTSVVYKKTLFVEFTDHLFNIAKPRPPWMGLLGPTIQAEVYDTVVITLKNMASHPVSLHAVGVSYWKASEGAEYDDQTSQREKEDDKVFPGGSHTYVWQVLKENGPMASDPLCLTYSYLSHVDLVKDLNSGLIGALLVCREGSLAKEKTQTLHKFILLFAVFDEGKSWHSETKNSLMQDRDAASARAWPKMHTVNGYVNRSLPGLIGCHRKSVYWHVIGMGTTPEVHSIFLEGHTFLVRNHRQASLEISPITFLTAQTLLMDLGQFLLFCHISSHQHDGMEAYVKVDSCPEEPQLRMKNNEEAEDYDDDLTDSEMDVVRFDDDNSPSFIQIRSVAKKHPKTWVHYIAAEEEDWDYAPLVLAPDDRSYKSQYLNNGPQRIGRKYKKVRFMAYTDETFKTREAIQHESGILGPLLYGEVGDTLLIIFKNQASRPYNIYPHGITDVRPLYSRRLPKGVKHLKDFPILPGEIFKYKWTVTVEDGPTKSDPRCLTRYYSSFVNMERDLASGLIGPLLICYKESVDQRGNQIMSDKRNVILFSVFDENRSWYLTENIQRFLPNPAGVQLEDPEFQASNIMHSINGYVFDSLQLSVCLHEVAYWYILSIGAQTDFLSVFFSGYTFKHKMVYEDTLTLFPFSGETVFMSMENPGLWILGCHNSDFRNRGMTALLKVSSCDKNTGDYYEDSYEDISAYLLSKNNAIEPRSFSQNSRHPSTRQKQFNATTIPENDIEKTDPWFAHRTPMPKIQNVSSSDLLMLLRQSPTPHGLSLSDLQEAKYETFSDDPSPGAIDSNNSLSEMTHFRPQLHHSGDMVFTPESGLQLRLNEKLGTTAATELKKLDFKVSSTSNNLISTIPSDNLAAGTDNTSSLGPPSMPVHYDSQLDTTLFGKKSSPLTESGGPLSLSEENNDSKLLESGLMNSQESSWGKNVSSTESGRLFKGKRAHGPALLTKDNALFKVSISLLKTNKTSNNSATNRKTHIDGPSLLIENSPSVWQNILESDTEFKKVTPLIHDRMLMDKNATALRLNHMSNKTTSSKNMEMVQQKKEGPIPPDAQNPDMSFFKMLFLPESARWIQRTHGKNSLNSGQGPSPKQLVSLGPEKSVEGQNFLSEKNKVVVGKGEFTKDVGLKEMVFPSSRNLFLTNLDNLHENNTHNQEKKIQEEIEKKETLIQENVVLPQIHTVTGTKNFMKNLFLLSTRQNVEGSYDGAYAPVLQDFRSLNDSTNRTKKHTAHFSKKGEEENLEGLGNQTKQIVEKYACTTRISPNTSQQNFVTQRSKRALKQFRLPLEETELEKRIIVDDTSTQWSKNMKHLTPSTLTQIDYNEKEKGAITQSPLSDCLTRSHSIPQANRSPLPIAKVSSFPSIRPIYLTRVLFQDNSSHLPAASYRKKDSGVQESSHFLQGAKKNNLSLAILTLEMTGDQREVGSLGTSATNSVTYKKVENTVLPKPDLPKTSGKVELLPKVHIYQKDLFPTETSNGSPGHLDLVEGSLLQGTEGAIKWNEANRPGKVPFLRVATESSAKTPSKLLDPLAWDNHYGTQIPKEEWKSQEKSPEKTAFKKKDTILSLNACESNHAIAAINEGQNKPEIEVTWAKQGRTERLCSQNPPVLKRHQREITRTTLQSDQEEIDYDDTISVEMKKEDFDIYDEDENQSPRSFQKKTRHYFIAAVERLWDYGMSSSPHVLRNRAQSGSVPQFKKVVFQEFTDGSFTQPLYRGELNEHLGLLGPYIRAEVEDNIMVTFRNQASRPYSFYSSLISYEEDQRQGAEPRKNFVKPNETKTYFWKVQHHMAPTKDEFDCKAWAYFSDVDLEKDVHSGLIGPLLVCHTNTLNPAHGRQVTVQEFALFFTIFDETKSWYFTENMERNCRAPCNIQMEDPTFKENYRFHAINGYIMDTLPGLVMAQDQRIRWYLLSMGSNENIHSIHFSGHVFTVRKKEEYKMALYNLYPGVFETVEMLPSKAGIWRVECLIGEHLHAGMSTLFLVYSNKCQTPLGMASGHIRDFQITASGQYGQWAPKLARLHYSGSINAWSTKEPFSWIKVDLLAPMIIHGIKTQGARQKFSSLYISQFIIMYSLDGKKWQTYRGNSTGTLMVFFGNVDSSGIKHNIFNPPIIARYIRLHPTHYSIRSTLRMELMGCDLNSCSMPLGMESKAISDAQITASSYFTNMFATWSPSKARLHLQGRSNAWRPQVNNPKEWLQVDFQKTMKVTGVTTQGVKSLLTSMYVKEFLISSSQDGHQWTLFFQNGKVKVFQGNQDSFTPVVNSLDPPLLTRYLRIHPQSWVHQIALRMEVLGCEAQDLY", "assay": "Factor VIII microplate assay", "type": "binding", "experimental": "On the basis of the results obtained from the initial collection, additional ligands were prepared and screened in relation to Factor VIII binding and elution behaviour. These studies have been performed either using a simple microtitre plate assay (resin volume 40 μL/well) to determine approximate Factor VIII binding affinity followed by more detailed studies using gravity-flow packed resin columns (0.5 mL resin volume). These packed column studies are more accurate and allow simple experiments to be conducted to determine absolute resin affinity by gradual saturation of the column (200 μL, […]) and following the protein concentration in the eluate after serial addition of each factor VIII aliquot applied to the column. In this way, the binding can be established and elution behaviour of each ligand in parallel.", "note": "Entries after “also recorded” stand apart in the source; their conditions may differ."}
{"smiles": "COC(=O)c1cccc(Nc2nc(C)nc(Nc3cccc4c(S(=O)(=O)OC)cccc34)n2)c1", "note": "[34/43]", "values": [{"measurement": "Factor VIII binding (in words)", "result": "strongest Factor VIII binding and elution characteristics; also recorded: one of the highest Factor VIII binding potential"}, {"measurement": "Factor VIII Bound", "setting": "initial collection U1-U4 and comparison ligand", "result": 106.3, "unit": "µg/mL"}]}
